Laboratory results as given in article PMC10054240, “New Inhibitors of Respiratory Syncytial Virus (RSV) Replication Based on Monoterpene-Substituted Arylcoumarins” (Molecules, 2023).
Values joined by “and” are separate entries in the source; they are usually repeats but may differ in a detail not shown here. Identical values can stand only once. Like-named read-outs stand apart in the source and are kept apart here.

Key:
[1] = Cytotoxicity on non-infected HEp-2 cells, MTT assay; type: cell-based; conditions: human, non-infected HEp-2 cells, CC50 (50% cytotoxic concentration), MTT, 24 h
RSV A strain A2 = experiment: Antiviral activity against RSV A strain A2 in HEp-2 cells (ELISA virus titer); type: cell-based, respiratory syncytial virus; conditions: for IC50: HEp-2, RSV A, read-out: pIC50 (-lg[IC50]) (converted); for IC50 / pIC50 (-lg[IC50]): from Table 1 values; for pIC50 (-lg[IC50]): RSV A
RSV A2 virus = experiment: Time-of-addition assay; type: cell-based, respiratory syncytial virus; conditions: 300 μg/mL, RSV A2, titer by ELISA
Experimental: Compounds 14e and 14b at a concentration of 300 μg/mL were added at different time intervals before, after, or during virus inoculation (Figure 2 and Figure 3). The time of compound addition was counted off from Point 0, i.e., the moment of virus entry into the cell. RSV A2 virus was added to cells at a time conventionally designated as […]; then, cells were kept at a temperature of 40 °C for 1 h. Next, at Point 0, unbound virus was washed off, fresh medium containing compounds at the same concentration was added, and the cells were transferred to a thermostat at 37 °C where they were incubated for 25 h. After this, medium collected from each well was used to make a series of ten-fold dilutions with fresh cell culture. The cells were incubated for 6 days. The viral titer was measured by ELISA.
Compounds were added at different time points before, after, or simultaneously with the introduction of the virus. The time of addition of the compounds was counted from Point 0, i.e., the time of entry of the virus into the cell. During the period (−1)–0, the cells together with the virus were incubated at 40 °C. All other experiments were carried out at 37 °C. RSV virus A […] was added to the cells at a time that was conventionally designated as […], after which the cells were kept for an hour at a temperature of 40 °C. Then, at Point 0, the virus was unbound. […]

HEp-2 cells = experiment: Cytotoxicity on non-infected HEp-2 cells, MTT assay; type: cell-based; conditions: for CC50: read-out: CC50 (50% cytotoxic concentration), MTT, 24 h
[2] = human respiratory syncytial virus
[3] = human respiratory syncytial virus, HEp-2, read-out: EC50 (50% effective concentration)
[4] = read-out: EC50 (50% effective concentration)
[5] = human respiratory syncytial virus, read-out: EC50 (50% effective concentration), RSV A strain A2, HEp-2 cells

EC50 (RSV A strain A2; [5]) | SMILES | CC50 at 24 h [1] | antiviral activity against RSV A (in words) (RSV A strain A2) | IC50 (RSV A strain A2; [2]) | EC50 (RSV A strain A2; [3]) | SI (selective index) (RSV A strain A2) | pIC50 (-lg[IC50]) (RSV A strain A2) | EC50 (RSV A strain A2; [4]) | effect on viral titer depending on time of addition (in words) (RSV A2 virus) | CC50 (HEp-2 cells) | EC50 (RSV A strain A2; human respiratory syncytial virus, HEp-2, read-out: EC50 (50% effective concentration), RSV A strain A2, HEp-2 cells) | cytotoxicity (in words) (HEp-2 cells)
– | CC(C)=CCC/C(C)=C/COc1ccc2c(-c3ccccc3)cc(=O)oc2c1 [Compound 14a] | 805 ± 97.6 µM | moderate antiviral activity | 67.6 µM | 67.3 ± 9.1 µM | – | – | – | – | – | – | –
– | CC1(C)C2CC=C(COc3ccc4c(-c5ccccc5)cc(=O)oc4c3)C1C2 (stereo not shown) [Compound 14b] | 591 ± 85.2 µM | – | – | – | 32.8 | 4.75 | 18 ± 0.9 µM | reduced the viral titer at all time periods, except for prophylactic use 2 h before virus entry into cells | – | – | –
– | CC1(C)C2CC=C(COc3ccc4c(-c5ccccc5)cc(=O)oc4c3)C1C2 (stereo not shown) [Compound 14c] | – | not active | – | – | 3.5 | 3.63 | 234 ± 27.1 µM | – | 813 ± 32.4 µM | – | –
– | CC1(C)C2CC=C(CCOc3ccc4c(-c5ccccc5)cc(=O)oc4c3)C1C2 (stereo not shown) [Compound 14d] | 657 ± 20.4 µM | – | 83.2 µM | 82.5 ± 10.3 µM | 7.9 | – | – | – | – | – | –
– | CC1(C)[C@H]2CC=C(CCCCOc3ccc4c(-c5ccccc5)cc(=O)oc4c3)[C@@H]1C2 [Compound 14f, 7-(4-((1R,5S)-6,6-Dimethylbicyclo[3.1.1]hept-2-en-2-yl)butoxy)-4-phenyl-2H-chromen-2-one] | 1270 ± 180 µM | – | 112 µM | 111 ± 10.5 µM | 11.4 | – | – | – | – | – | –
– | CC(C)=CCC/C(C)=C/COc1ccc2c(-c3ccc(Br)cc3)cc(=O)oc2c1 [Compound 15a] | 8.8 ± 0.5 µM | – | 8.91 µM | 8.8 ± 0.7 µM | 1 | – | – | – | – | – | –
– | CC1(C)C2CC=C(COc3ccc4c(-c5ccc(Br)cc5)cc(=O)oc4c3)C1C2 (stereo not shown) [Compound 15b] | 46.6 ± 8.6 µM | – | – | – | 3 | 4.82 | 15.1 ± 1.1 µM | – | – | – | –
– | CC1(C)C2CC=C(COc3ccc4c(-c5ccc(Br)cc5)cc(=O)oc4c3)C1C2 (stereo not shown) [Compound 15c] | – | – | – | – | 1.9 | 4.31 and 4.30 | 48.7 ± 7.6 µM | – | 90.8 ± 11 µM | – | –
– | CC1(C)C2CC=C(CCOc3ccc4c(-c5ccc(Br)cc5)cc(=O)oc4c3)C1C2 (stereo not shown) [Compound 15d] | 17.2 ± 2.6 µM | – | > 20 µM | > 20 µM | <0.8 | 4.70 | – | – | – | – | –
– | CC1(C)[C@H]2CC=C(CCCOc3ccc4c(-c5ccc(Br)cc5)cc(=O)oc4c3)[C@@H]1C2 [Compound 15e, 4-(4-Bromophenyl)-7-(3-((1R,5S)-6,6-dimethylbicyclo[3.1.1]hept-2-en-2-yl)propoxy)-2H-chromen-2-one] | 12.5 ± 1.4 µM | – | > 12.6 µM | > 12.5 µM | <1 | 4.90 | – | – | – | – | –
– | CC1(C)[C@H]2CC=C(CCCCOc3ccc4c(-c5ccc(Br)cc5)cc(=O)oc4c3)[C@@H]1C2 [Compound 15f, 4-(4-Bromophenyl)-7-(4-((1R,5S)-6,6-dimethylbicyclo[3.1.1]hept-2-en-2-yl)butoxy)-2H-chromen-2-one] | 91.3 ± 9.2 µM | – | 9.55 µM | 9.5 ± 0.8 µM | – | – | – | – | – | – | –
– | O=c1cc(-c2ccc(Br)cc2)c2ccc(OCc3ccccc3)cc2o1 [Compound 15g] | 265 ± 29.5 µM | – | 83.2 µM | 84 ± 3 µM | 3.2 | – | – | – | – | – | –
– | CC(C)=CCC/C(C)=C/COc1ccc2c(-c3ccc(F)cc3)cc(=O)oc2c1 [Compound 16a] | 273 ± 16 µM | – | 47.9 µM | 47.4 ± 8 µM | 5.8 | – | – | – | – | – | –
– | CC1(C)C2CC=C(COc3ccc4c(-c5ccc(F)cc5)cc(=O)oc4c3)C1C2 (stereo not shown) [Compound 16b] | – | – | – | – | 2.9 | 3.99 | 103 ± 7.1 µM | – | 297 ± 8.5 µM | – | –
– | CC1(C)C2CC=C(COc3ccc4c(-c5ccc(F)cc5)cc(=O)oc4c3)C1C2 (stereo not shown) [Compound 16c] | – | – | – | – | 1.4 | 4.84 | 14.3 ± 2.9 µM | – | 20.5 ± 4.9 µM | – | –
– | CC1(C)[C@H]2CC=C(CCCOc3ccc4c(-c5ccc(F)cc5)cc(=O)oc4c3)[C@@H]1C2 [Compound 16e, 7-(3-((1R,5S)-6,6-Dimethylbicyclo[3.1.1]hept-2-en-2-yl)propoxy)-4-(4-fluorophenyl)-2H-chromen-2-one] | 996 ± 8.2 µM | – | 110 µM | 110 ± 10.4 µM | 9 | – | – | – | – | – | –
– | CC1(C)[C@H]2CC=C(CCCCOc3ccc4c(-c5ccc(F)cc5)cc(=O)oc4c3)[C@@H]1C2 [Compound 16f, 7-(4-((1R,5S)-6,6-Dimethylbicyclo[3.1.1]hept-2-en-2-yl)butoxy)-4-(4-fluorophenyl)-2H-chromen-2-one] | 109 ± 10.5 µM | – | 9.33 µM | 9 µM | 11.8 | – | 9.2 ± 1.1 µM | – | – | – | –
– | O=c1cc(-c2ccc(F)cc2)c2ccc(OCc3ccccc3)cc2o1 [Compound 16g, 7-(Benzyloxy)-4-(4-fluorophenyl)-2H-chromen-2-one] | 655 ± 29.7 µM | – | 692 µM | – | <0.9 | 3.20 | – | – | – | > 690 µM | –
– | COc1ccc(-c2cc(=O)oc3cc(OC/C=C(\C)CCC=C(C)C)ccc23)cc1 [Compound 17a] | 339 ± 26.3 µM | – | 58.9 µM | 58.3 ± 8.5 µM | 5.8 | 4.20 | – | – | – | – | –
– | COc1ccc(-c2cc(=O)oc3cc(OCC4=CCC5CC4C5(C)C)ccc23)cc1 (stereo not shown) [Compound 17b] | 12.4 ± 2.8 µM | – | > 12.6 µM | > 12 µM | <1 | 4.90 | – | – | – | – | –
– | COc1ccc(-c2cc(=O)oc3cc(OCC4=CCC5CC4C5(C)C)ccc23)cc1 (stereo not shown) [Compound 17c] | – | – | – | – | <1 | < 4.8 and 4.80 | > 15 µM | – | 14.7 ± 2.9 µM | – | –
– | COc1ccc(-c2cc(=O)oc3cc(OCCC4=CCC5CC4C5(C)C)ccc23)cc1 (stereo not shown) [Compound 17d] | 677 ± 22.9 µM | – | 64.6 µM | 64.1 ± 5.4 µM | 10.6 | – | – | – | – | – | –
35.9 ± 5.7 µM | COc1ccc(-c2cc(=O)oc3cc(OCCCC4=CC[C@H]5C[C@@H]4C5(C)C)ccc23)cc1 [Compound 17e, 7-(3-((1R,5S)-6,6-Dimethylbicyclo[3.1.1]hept-2-en-2-yl)propoxy)-4-(4-methoxyphenyl)-2H-chromen-2-one] | > 100 µM | – | – | – | – | – | – | – | – | – | –
– | COc1ccc(-c2cc(=O)oc3cc(OCCCCC4=CC[C@H]5C[C@@H]4C5(C)C)ccc23)cc1 [Compound 17f, 7-(4-((1R,5S)-6,6-Dimethylbicyclo[3.1.1]hept-2-en-2-yl)butoxy)-4-(4-methoxyphenyl)-2H-chromen-2-one] | 117 ± 7 µM | – | > 12.6 µM | 10 µM | – | 4.97 | 10.8 ± 1 µM | – | – | – | –
– | COc1ccc(-c2cc(=O)oc3cc(OCc4ccccc4)ccc23)cc1 [Compound 17g] | 16.8 ± 3.2 µM | – | > 17 µM | > 17 µM | <1 | 4.80 | – | – | – | – | –
– | CC1(C)[C@H]2CC=C(CNc3ccc4c(-c5ccccc5)cc(=O)oc4c3)[C@@H]1C2 [Compound 21, 7-(((1R,5S)-6,6-Dimethylbicyclo[3.1.1]hept-2-en-2-yl)methylamino)-4-phenyl-2H-chromen-2-one] | 20.5 ± 1.4 µM | – | > 12.6 µM | > 13 µM | – | 4.90 | – | – | – | – | abrupt increase in cytotoxicity
– | CC1(C)[C@H]2CC=C(CCNc3ccc4c(-c5ccccc5)cc(=O)oc4c3)[C@@H]1C2 [Compound 22, 7-(2-((1R,5S)-6,6-Dimethylbicyclo[3.1.1]hept-2-en-2-yl)ethylamino)-4-phenyl-2H-chromen-2-one] | 480 ± 18.4 µM | – | 79.4 µM | 79.9 ± 7.4 µM | 6 | – | – | – | – | – | –
80.1 ± 13.5 µM | NC(=O)c1ncn([C@@H]2O[C@H](CO)[C@@H](O)[C@H]2O)n1 [Ribavirin, reference compound] | > 4000 µM | – | – | – | – | – | – | – | – | – | –
